Source: patent US20030119061A1, “Structure-based drug design methods for identifying D-Ala-D-Ala ligase inhibitors as antibacterial drugs” (priority 2001, published 2003)

Assays:
[1] = biological target: T1, D-Ala-D-Ala ligase (Escherichia coli, UniProt P07862); assay: Stopped flow fluorescence quenching studies of nucleotide binding to ligase; details: for Kd: partially closed complex, product of Kd1 and Kd2, read-out: final (overall) Kd
Description: We have discovered a significant fluorescence quenching upon binding of ATP and ADP, which we have exploited to examine mechanistic features of ligase. We have carried out stopped flow studies to look at the binding of ATP and ADP to ligase. These studies were carried out at 4° C. We observe a single exponential fluorescent quenching which is completed in <20 ms. […] This confirms our previous hypothesis about ligase, namely that the enzyme undergoes conformational changes that are an important and integral part of its enzymatic mechanism. This enzyme appears to fall into the category of “induced fit”.
The enzyme undergoes a conformational change to form the partially closed complex EA*. […] For ADP the conformational change increases the affinity of the nucleotide seven-fold for the partially closed complex, with respect to the initial collision complex, leading to an overall Kd of 50 μM. […] To dissociate the ligand, the enzyme has to relax back to the open form. […] In some cases, it can be advantageous for the inhibitor to trigger a further conformational change, perhaps the closure of the omega loop of domain D, leading to a fully closed form of the enzyme.
Stopped flow studies have added to the understanding of the mechanism by which ligase binds ligands, and have confirmed previous suspicions about “induced fit” mechanism. Determining the affinity of high affinity inhibitors (low nM) will be difficult by equilibrium binding methods or steady state enzyme kinetics. Stopped flow studies may well be the only way that the affinity of high affinity inhibitors can be determined with any degree of confidence. The studies can be carried out, for example, using the methods described by Eccleston, J. F. “Stopped-flow Spectrophotometric Techniques” in Spectrophotometry and Spectrofluorimetry a Practical Approach, Ed. D. A. Harris & C. L. Bashford, IRL Press, 1987, p. 137-164.

[2] = biological target: D-Ala-D-Ala ligase omega loop (D domain) (Escherichia coli, UniProt P07862); assay: Proteolysis (trypsin) assay of omega loop closure; type: biochemical
Source text: (§1) We have developed an in vitro assay to look at the closure of the omega loop (i.e., the D domain). The closure of the omega loop is probed by proteolysis.

[3] = biological target: T1, D-Ala-D-Ala ligase; assay: Affinity for D-Ala-D-Ala ligase relative to ATP (method not given); type: binding; details: given in brackets after ATP
Source text: as §1

[4] = biological target: T1, D-Ala-D-Ala ligase; assay: D-Ala-D-Ala ligase IC50 determination (PK/LDH coupled assay); type: biochemical; details: control in 1× core buffer; read-out: value (IC50 or Ki) for D-Ala-D-Ala ligase inhibition
Source text: Inhibition of D-Ala-D-Ala ligase can be assayed for using the pyruvate kinase/lactate dehydrogenase (PK/LDH) assay described in Example 2. In the bacterial cell wall synthesis process, the ligase catalyzes the conversion of ATP to ADP concurrent with the ligation of two D-alanine residues. PK then regenerates ATP from the ADP thus created simultaneously with the conversion of phosphopyruvate to pyruvate. LDH catalyzes the reduction of pyruvate to lactate by converting NADH to NAD^+. By monitoring the production rate of NAD^+, D-Ala-D-Ala ligase activity can be ascertained.
The purine derivatives of Example 1 were dissolved in dimethylsulfoxide (DMSO) at a concentration of 100 mM on the day of screening, using a vortex mixer if necessary for dissolution. The solutions were kept at room temperature until screening was completed.
A 10 mM NADH (Sigma) stock solution was prepared fresh on the day of screening by dissolving 32 μmol NADH in 3.2 ml double-distilled water. The NADH solution was kept on ice. […]
At t=18-19 minutes, the substrate solution was taken from 25° C. to a Spectromax® UV-vis spectrophotometer. At t=20 minutes, within a 30 second timeframe, 125 μl of substrate solution was added to each well of columns 1-4, and the absorbance at 340 nm was read. […]

[5] = together with a D-Ala site binding molecule (phosphinate, D-Ala-D-Ala or cycloserine)

Nc1ncnc2c1ncn2[C@@H]1O[C@H](COP(=O)(O)OP(=O)(O)O)[C@@H](O)[C@H]1O [ADP]
affinity for D-Ala-D-Ala ligase relative to ATP ([1]; ADP vs ATP): three | increase in affinity by the conformational change (partially closed vs initial collision complex) ([1]; stopped flow, 4° C.): seven | net dissociation rate constant (k−2) ([1]; stopped flow, 4° C.): 72 s⁻¹ | Kd ([1]; stopped flow, 4° C.): 50 µM | omega loop closure (protection from trypsin proteolysis) [2, 5]: stabilize the omega loop closure

Nc1ncnc2c1ncn2[C@@H]1O[C@H](COP(=O)(O)OP(=O)(O)NP(=O)(O)O)[C@@H](O)[C@H]1O [AMPPNP]
omega loop closure (protection from trypsin proteolysis) [2, 5]: does not support the omega loop closure

Nc1ncnc2c1ncn2[C@@H]1O[C@H](COP(=O)(O)OP(=O)(O)OP(=O)(O)O)[C@@H](O)[C@H]1O [ATP, adenosine triphosphate]
Kd [3]: 300 µM | increase in affinity by the conformational change (partially closed vs initial collision complex) ([1]; stopped flow, 4° C.): 3.2 fold | Kd ([1]; stopped flow, 4° C.): 157 µM | koff ([1]; stopped flow, 4° C., read-out: net dissociation rate constant (k−2)): 126 s⁻¹ | omega loop closure (protection from trypsin proteolysis) ([2]; nucleotide alone, no D-Ala site binding molecule): cannot close the omega loop | omega loop closure (protection from trypsin proteolysis) [2, 5]: stabilize the omega loop closure

Nc1ncnc2c1ncn2[C@@H]1O[C@H](COP(=O)(O)OP(=O)(O)OP(O)(O)=S)[C@@H](O)[C@H]1O [ATPgS]
omega loop closure (protection from trypsin proteolysis) [2, 5]: stabilize the omega loop closure

N[C@@H]1CON=C1O [Cycloserine, D-cycloserine]
IC50 [4]: ~150 µM
